Results as given in patent US20060160703A1, “Selective herbicides based on substituted cyclic dicarbonyl compounds and safeners” (priority 2003, published 2006).

Experiments:
Format in all cases: in vivo
Summer wheat [1] = assay: Greenhouse trial, post-emergence, safener one day before (Example 2); details: combinations: safener 100 g/ha one day before
Procedure: (§1) Seeds of monocotyledonous and dicotyledonous weed and crop plants are placed into sandy loam in wood fiber pots or in plastic pots, covered with soil and cultivated in a greenhouse, including during the vegetation period outdoors outside of the greenhouse, under good growth conditions. Two-three weeks after sowing, the test plants are treated at the one- to three-leaf stage. […], formulated as wettable powders (WP) or emulsifiable concentrates (EC) are, in various dosages with a water application rate of 300 l/ha (converted), with added wetting agent (0.2 to 0.3%) sprayed onto the plants and the surface of the soil. Three to four weeks after the treatment of the test plants, the effect of the preparations is rated visually in comparison to untreated controls (herbicidal effect in percent (%): 100% effect=plants have died, 0% effect=like control plants).
(§2) If it is additionally to be tested as to whether safeners can improve the plant compatibility of test substances in the case of crop plants, the following options are used for applying the safener:
(§3) before the application of the test substances, the crop plants are sprayed with the safener at a certain application rate per hectare (usually 1 day before the application of the test substances).
(§4) By comparing the effect of the test substances on crop plants without or with safener treatment, it is possible to assess the effect of the safener substance. [drawing 61] [drawing 62]
(§5) Greenhouse trial/Post-emergence
(§6) One day before the application of the compounds of the formula (I), the crop plants are treated with the safener (application rate 100 g/ha).

Summer barley [2] = assay: as above; details: combinations: safener 100 g/ha one day before
Procedure: as §1, §2, §3, §4, §5, §6

[3] = system: Corn of the Cultivar Lorenzo; assay: Greenhouse trial, post-emergence, corn (Example 3)
Procedure: as §1, §2
seeds of the crop plants are, before sowing, dressed with the safener substance (the amount of safener is stated in percent, based on the weight of the seed)
as §3, §4
Greenhouse Trial/Post-Emergence
Corn of the Cultivar Lorenzo
Addition of Safener: • a) Before sowing, seeds of the crop plants are dressed with the compound of the formula (IIe-5) (0.5% of safener, based on the weight of the seeds). • b) One day before the application of the compounds of the formula (I), the crop plants are treated with the compound of the formula (IIe-5) (application rate 100 g/ha). • c) One day before the application of the compounds of the formula (I), the crop plants are treated with isoxadifen (application rate 100 g/ha)
For the spray treatment, the herbicide was formulated as WP20 and the safener as WP10.

Summer wheat [4] = assay: Outdoor trial, post-emergence, tank mix (Example 1); details: herbicide 0.120 kg/ha, combinations: tank mix mefenpyr-diethyl:compound (I) = 2:1
Procedure: as §1, §2
(§7) the safener is applied together with the test substance as a tank mix (the amount of safener is stated in g/ha or as a ratio, based on the herbicide).
as §4
(§8) Outdoor trial/Post-emergence
(§9) Ratio mefenpyr-diethyl:compound of the formula (I)=2:1

Winter barley = assay: as above; details: herbicide 0.120 kg/ha, combinations: tank mix mefenpyr-diethyl:compound (I) = 2:1
Procedure: as §1, §2, §7, §4, §8, §9

Summer barley [5] = assay: as above; details: herbicide 0.120 kg/ha, combinations: tank mix mefenpyr-diethyl:compound (I) = 2:1, 100% = plants have died, 0% = like control
Procedure: as §1, §2, §7, §4, §8, §9

Winter wheat = assay: as above; details: herbicide 0.120 kg/ha, combinations: tank mix mefenpyr-diethyl:compound (I) = 2:1
Procedure: as §1, §2, §7, §4, §8, §9

[6] = herbicide 0.013 kg/ha; greenhouse, post-emergence; corn cultivar Lorenzo; safener by method a), b) or c) as
[7] = herbicide 0.025 kg/ha; greenhouse, post-emergence; corn cultivar Lorenzo; safener by method a), b) or c) as
[8] = herbicide 0.050 kg/ha; greenhouse, post-emergence; corn cultivar Lorenzo; safener by method a) IIe-5 seed dressing 0.5%, b) IIe-5 100 g/ha one day before, c) isoxadifen 100 g/ha one day before

Compound | herbicidal effect in percent, Summer wheat (Summer wheat [1]; herbicide 0.025 kg/ha) | herbicidal effect in percent, Summer wheat (Summer wheat [1]; herbicide 0.050 kg/ha) | herbicidal effect in percent, Summer wheat (Summer wheat [1]; herbicide 0.100 kg/ha) | herbicidal effect in percent, Summer barley (Summer barley [2]; herbicide 0.025 kg/ha) | herbicidal effect in percent, Summer barley (Summer barley [2]; herbicide 0.050 kg/ha) | herbicidal effect in percent, Summer barley (Summer barley [2]; herbicide 0.100 kg/ha) | herbicidal effect in percent, Corn [3, 6] | herbicidal effect in percent, Corn [3, 7] | herbicidal effect in percent, Corn [3, 8] | herbicidal effect in percent, Summer wheat (Summer wheat [4]) | herbicidal effect in percent, Winter barley (Winter barley) | herbicidal effect in percent, Summer barley (Summer barley [5]) | herbicidal effect in percent, Winter wheat (Winter wheat)
CCc1cc(Cl)cc(Br)c1C1(Cl)C(=O)NC2(CCCCC2)C1=O (stereo not drawn) [I-1-5] | 30% | 60% | 65% | 20% | 50% | 92% | – | – | – | – | – | – | –
Cc1cc(-c2ccc(Cl)cc2)cc(C)c1C1(Cl)C(=O)N2CCOCCN2C1=O [I-4-2] | 60% | 97% | 97% | 40% | 95% | 97% | – | – | – | – | – | – | –
Cc1cc(-c2ccc(Cl)cc2)cc(C)c1C1(Cl)C(=O)N2CCCCN2C1=O [I-4-1] | 20% | 60% | 60% | 20% | 80% | 80% | – | – | – | – | – | – | –
CCc1cc(Br)cc(CC)c1C1(Cl)C(=O)NC(C)(C)C1=O (stereo not drawn) [I-1-3] | – | – | – | – | – | – | 0% | 0% | 85% | – | – | – | –
CCc1cc(Cl)cc(Cl)c1C1(Cl)C(=O)NC2(CCC(OC)CC2)C1=O (stereo not drawn) [I-1-1] | – | – | – | – | – | – | 99% | 100% | 100% | 15% | 30% | 40% | 20%
CCc1cc(Br)cc(CC)c1C1(Cl)C(=O)NC2(CCCCC2)C1=O (stereo not drawn) [I-1-4] | – | – | 10% | – | – | 10% | – | – | – | – | – | – | –
